Laboratory results taken from patent US20220056043A1, “NITROGEN-CONTAINING FUSED CYCLIC COMPOUND, PREPARATION METHOD THEREFOR AND USE THEREOF” (SICHUAN KELUN-BIOTECH BIOPHARMACEUTICAL CO., LTD., priority 2019, published 2022).
pEC50: −log10 of the molar value. Structures can show the parent of a compound that is named as a salt.

How the values were obtained:
hNLRP3 inflammasome = biological target: T1, hNLRP3 inflammasome (Homo sapiens, UniProt Q96P20); assay: Agonistic effect on the expression of IL-1β in THP-1 cells after PMA-induced differentiation (HTRF); type: cell-based; details: IL-1β level, PMA-differentiated THP-1 cells, 6 hours
T1 construct: endogenous in cells; host or cells: THP-1 cells, PMA-differentiated
Procedure, shortened: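 THP-1 cells differentiated with 1 μM PMA for 24 h, then replated at 1×10^5 cells/well in RPMI 1640 with 2% FBS. Compounds added for 6 h at 37 °C, 5% CO2. Supernatant IL-1β measured by HTRF; EC50 from four-parameter variable-slope fit.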

hTLR8 = biological target: T2, hTLR8 (Homo sapiens, UniProt Q9NR97); assay: Agonistic effect on hTLR8, HEK-Blue hTLR8 cells, alkaline phosphatase secretion; type: cell-based; details: 16 hours
T2 construct: host or cells: HEK-Blue hTLR8 cells
T2 sequence (Q9NR97 27-1041): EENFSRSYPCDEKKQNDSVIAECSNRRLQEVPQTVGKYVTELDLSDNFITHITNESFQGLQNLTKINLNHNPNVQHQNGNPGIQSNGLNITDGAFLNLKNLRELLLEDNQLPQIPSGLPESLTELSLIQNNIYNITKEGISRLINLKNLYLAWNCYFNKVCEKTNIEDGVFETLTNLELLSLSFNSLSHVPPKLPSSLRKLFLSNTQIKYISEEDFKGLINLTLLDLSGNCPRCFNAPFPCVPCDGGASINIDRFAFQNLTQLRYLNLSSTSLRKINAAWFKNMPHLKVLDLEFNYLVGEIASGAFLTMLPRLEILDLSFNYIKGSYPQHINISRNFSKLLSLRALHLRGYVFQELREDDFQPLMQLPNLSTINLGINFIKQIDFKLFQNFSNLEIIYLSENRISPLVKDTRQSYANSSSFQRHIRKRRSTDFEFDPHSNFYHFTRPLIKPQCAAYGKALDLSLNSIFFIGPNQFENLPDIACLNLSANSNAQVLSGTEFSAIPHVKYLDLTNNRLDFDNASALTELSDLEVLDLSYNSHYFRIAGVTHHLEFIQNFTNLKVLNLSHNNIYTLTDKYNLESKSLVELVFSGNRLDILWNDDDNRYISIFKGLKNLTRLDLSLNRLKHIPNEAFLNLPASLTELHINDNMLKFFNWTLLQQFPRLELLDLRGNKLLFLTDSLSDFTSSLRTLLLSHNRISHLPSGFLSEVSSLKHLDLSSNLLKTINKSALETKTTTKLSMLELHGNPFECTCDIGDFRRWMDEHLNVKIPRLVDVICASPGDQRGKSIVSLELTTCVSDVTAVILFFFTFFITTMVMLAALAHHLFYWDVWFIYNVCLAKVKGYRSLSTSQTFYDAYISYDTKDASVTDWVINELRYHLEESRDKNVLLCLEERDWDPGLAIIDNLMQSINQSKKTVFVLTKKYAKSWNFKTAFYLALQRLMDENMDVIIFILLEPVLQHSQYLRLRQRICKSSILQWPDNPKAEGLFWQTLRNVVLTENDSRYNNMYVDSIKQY
Experimental: Experimental Example 4: Agonistic Effect of the Compound of the Invention on hTLR8
In this test, the secretion of alkaline phosphatase in HEK-Blue cells was measured to test the activating effect of the compound of the invention on TLR8 signaling pathway, so as to evaluate the specificity of the agonistic effect of the compound on NLRP3 pathway.
Reagents: DMEM (High glucose); FBS (fetal bovine serum) (Gibco); QUANTI-Blue/InvivoGen/rep-qb2
Cells: HEK-Blue™ hTLR8 cells (human TLR 8 cells) (InvivoGen) Experimental Procedures:
1) The HEK-Blue™ hTLR8 cells in a logarithmic growth phase were trypsinized and resuspended in the medium to a concentration of 2×10^6 cells/mL. 50 μL/well of the cell suspension was added to a 96-well plate. An appropriate amount of 10 mM DMSO solution of the compound to be tested was taken and diluted to a concentration of 2× test concentration with the medium. 50 μL/well was added to the cells in the 96-well plate. The plate was incubated in an incubator at 37° C. and 5% CO2 for 16 hours. The medium was DMEM (High glucose) containing 10% FBS. 2) After the cell incubation, 10 μL of cell culture supernatant was transferred to a 96-well plate. 90 μL/well of QUANTI-Blue detection solution was added, and the mixture was incubated at 37° C. for 3 hours. OD620 was read using a microplate reader.
3) The EC50 of the effect of the tested compound to stimulate hTLR8 was fitted by the GraphPad software log(agonist) vs. response—Variable slope four-parameter method.

T1 sequence (Q96P20 whole entry): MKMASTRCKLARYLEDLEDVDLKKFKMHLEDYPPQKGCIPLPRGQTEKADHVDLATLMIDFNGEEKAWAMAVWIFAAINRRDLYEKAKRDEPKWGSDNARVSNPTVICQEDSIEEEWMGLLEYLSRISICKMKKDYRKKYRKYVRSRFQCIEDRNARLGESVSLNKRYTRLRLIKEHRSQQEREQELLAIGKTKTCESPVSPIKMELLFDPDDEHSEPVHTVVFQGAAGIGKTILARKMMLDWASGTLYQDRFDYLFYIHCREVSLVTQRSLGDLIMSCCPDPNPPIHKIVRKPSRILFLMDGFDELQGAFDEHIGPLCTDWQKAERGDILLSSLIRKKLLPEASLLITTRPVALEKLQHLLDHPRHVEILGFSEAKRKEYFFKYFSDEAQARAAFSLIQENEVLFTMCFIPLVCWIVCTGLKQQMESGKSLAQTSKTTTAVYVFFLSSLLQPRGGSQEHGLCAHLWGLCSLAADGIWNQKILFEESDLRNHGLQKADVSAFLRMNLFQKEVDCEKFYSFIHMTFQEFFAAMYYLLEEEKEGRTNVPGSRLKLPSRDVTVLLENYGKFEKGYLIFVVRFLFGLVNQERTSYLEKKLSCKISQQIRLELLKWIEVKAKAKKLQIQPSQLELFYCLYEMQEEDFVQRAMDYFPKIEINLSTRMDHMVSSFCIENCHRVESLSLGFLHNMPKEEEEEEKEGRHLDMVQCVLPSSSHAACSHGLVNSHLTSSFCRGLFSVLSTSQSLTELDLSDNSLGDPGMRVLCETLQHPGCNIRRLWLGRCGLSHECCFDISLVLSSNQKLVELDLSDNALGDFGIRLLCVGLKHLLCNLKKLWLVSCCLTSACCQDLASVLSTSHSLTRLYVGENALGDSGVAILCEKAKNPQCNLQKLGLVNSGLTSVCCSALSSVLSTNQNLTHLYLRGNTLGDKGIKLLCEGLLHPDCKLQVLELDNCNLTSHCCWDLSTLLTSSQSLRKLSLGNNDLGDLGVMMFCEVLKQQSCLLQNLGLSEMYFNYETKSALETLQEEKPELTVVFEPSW

EC50 (hNLRP3 inflammasome) [µM] | pEC50 (hTLR8) | Compound
0.34 | < 4.00 | C[C@@H](CO)Nc1cc(N)nc2cc(-c3ccn[nH]3)sc12 [Compound 108, (S)-2-((5-amino-2-(1H-pyrazol-5-yl)thieno[3,2-b]pyridin-7-yl)amino)propanol]
0.03 | < 4.00 | Nc1cc(NCC(F)(F)c2ccccn2)c2sc(-c3ccn[nH]3)cc2n1 [Compound 97, N^7-(2,2-difluoro-2-(pyridin-2-yl)ethyl)-2-(1H-pyrazol-5-yl)thieno[3,2-b]pyridine-5,7-diamine]
0.27 | < 4.00 | Nc1cc(N2CCN(C3CC3)CC2)c2sc(-c3ccn[nH]3)cc2n1 [Compound 163]
0.02 | < 4.00 | Nc1cc(N[C@@H]2CC[C@@H](O)C2)c2sc(-c3ccn[nH]3)cc2n1 [Compound 30s, (1R,3R)-3-((5-amino-2-(1H-pyrazol-5-yl)thieno[3,2-b]pyridin-7-yl)amino)cyclopentanol hydrochloride]
0.23 | < 4.00 | COC(C)(C)CNc1cc(N)nc2cc(-c3ccn[nH]3)sc12 [Compound 111, N^7-(2′-methoxy-2′-methylpropyl)-2-(1H-pyrazol-5-yl)thieno[3,2-b]pyridine-5,7-diamine]
0.11 | < 4.00 | Nc1cc(N[C@H]2C[C@H]2CO)c2sc(-c3ccn[nH]3)cc2n1 [Compound 182s]
0.44 | < 4.00 | Nc1cc(NCCN2CCOCC2)c2sc(-c3ccn[nH]3)cc2n1 [Compound 55, N^7-(2-morpholinoethyl)-2-(1H-pyrazol-5-yl)thieno[3,2-b]pyridine-5,7-diamine]
0.03 | < 4.00 | CC1(CNc2cc(N)nc3cc(-c4ccn[nH]4)sc23)COC1 [Compound 121, N^7-((3-methyloxetan-3-yl)methyl)-2-(1H-pyrazol-5-yl)thieno[3,2-b]pyridine-5,7-diamine]
0.26 | < 4.00 | C[C@H](O)CNc1cc(N)nc2cc(-c3ccn[nH]3)sc12 [Compound 33]
0.11 | < 4.00 | Cc1cccc(-c2cc3nc(N)cc(NCCCO)c3s2)n1 [Compound 91, 3-((5-amino-2-(6-methylpyridin-2-yl)thieno[3,2-b]pyridin-7-yl)amino)-1-propanol]
0.03 | < 4.00 | CC1(C)CN(c2cc(N)nc3cc(-c4ccn[nH]4)sc23)CCO1 [Compound 171]
0.02 | < 4.00 | Nc1cc(NC2CCCC2)c2sc(-c3ccn[nH]3)cc2n1 [Compound 110, N^7-cyclopentyl-2-(1H-pyrazol-5-yl)thieno[3,2-b]pyridine-5,7-diamine]
0.26 | < 4.00 | CC(=O)N(C)CCCNc1cc(N)nc2cc(-c3ccn[nH]3)sc12 [Compound 74, N-(3-((5-amino-2-(1H-pyrazol-5-yl)thieno[3,2-b]pyridin-7-yl)amino)propyl)-N-methylacetamide]
0.34 | < 4.00 | Nc1cc(N2CCNCC2)c2sc(-c3ccn[nH]3)cc2n1 [Compound 175]
0.17 | < 4.00 | Nc1cc(N2CCN(C=O)CC2)c2sc(-c3ccn[nH]3)cc2n1 [Compound 178]
0.28 | < 4.00 | Nc1cc(NC2COC2)c2sc(-c3ccn[nH]3)cc2n1 [Compound 112, N^7-(oxetan-3-yl)-2-(1H-pyrazol-5-yl)thieno[3,2-b]pyridine-5,7-diamine]
0.18 | < 4.00 | CC(=O)N(C)CCNc1cc(N)nc2cc(-c3ccn[nH]3)sc12 [Compound 73, N-(2-((5-amino-2-(1H-pyrazol-5-yl)thieno[3,2-b]pyridin-7-yl)amino)ethyl)-N-methylethanamide]
0.04 | < 4.00 | CCC(=O)N(C)CCNc1cc(N)nc2cc(-c3ccn[nH]3)sc12 [Compound 88, N-(2-((5-amino-2-(1H-pyrazol-5-yl)thieno[3,2-b]pyridin-7-yl)amino)ethyl)-N-methylpropionamide]
0.02 | < 4.00 | Nc1cc(N2CCOCC2)c2sc(-c3ccn[nH]3)cc2n1 [Compound 170]
0.01 | < 4.00 | Nc1cc(N2CCN(C3CCCCC3)CC2)c2sc(-c3ccn[nH]3)cc2n1 [Compound 167]
1.12 | < 4.00 | CC(=O)N1CCC(Nc2cc(N)nc3cc(-c4ccn[nH]4)sc23)CC1 [Compound 92, 1-(4-((5-amino-2-(1H-pyrazol-5-yl)thieno[3,2-b]pyridin-7-yl)amino)piperidin-1-yl)ethanone]

Compound | EC50 (hNLRP3 inflammasome) [µM] | pEC50 (hTLR8)
Nc1cc(N2CC3CC(C2)N3C=O)c2sc(-c3ccn[nH]3)cc2n1 [Compound 179] | 0.05 | < 4.00
